Measured values published in patent US10973784B2, “Compositions and methods for treating Alzheimer's disease and Parkinson's disease” (Biotie Therapies, Inc., priority 2016, dated 2021).
Several values for one entry are separate records, joined by “and”; a condition that tells them apart may be missing. Equal values may be shown once. Read-outs that look alike come from different tables or passages of the source.

Legend:
[1] = Pharmacokinetic analysis of SYN120 tablets, single oral dose (Example 8); type: in vivo, human; settings: for AUC(0-t): po, 100 mg
Protocol: Pharmacokinetic (PK) analysis was performed on 42 subjects (36 males; 6 females) who received SYN120 oral tablets. In this study, subjects received a single oral dose of SYN120 at one of the following doses: 2 mg; 10 mg; 30 mg; 100 mg; 300 mg; and 600 mg. The SYN120 oral tablets used in this study were formulated for immediate release at tablet strengths of 2 mg, 10 mg, and 50 mg. The tablets were formulated using lactose monohydrate, corn starch, sodium starch glycolate, povidone, sodium lauryl sulfate, magnesium stearate, and the coating agent Opadry Yellow. Blood samples were collected at predose and 0.5, 1, 1.5, 2, 3, 4, 6, 8, 12, 16, 24, 32, 36, 48, and 72 hours postdose. During the treatments at 100 mg and higher, the protocol was amended to include an additional blood sample on Study Day 7 (nominal time of 151 hours). Following oral administration, SYN120 absorption was rapid and plasma levels were measurable in all subjects at the first time point (0.5 hours).
Table 14 below provides a summary of the mean PK parameters of plasma SYN120 for all doses.

[2] = target: T1, 5-HT2C receptor (Homo sapiens, UniProt P28335); settings: cited from earlier work
T1 sequence (P28335 33-458): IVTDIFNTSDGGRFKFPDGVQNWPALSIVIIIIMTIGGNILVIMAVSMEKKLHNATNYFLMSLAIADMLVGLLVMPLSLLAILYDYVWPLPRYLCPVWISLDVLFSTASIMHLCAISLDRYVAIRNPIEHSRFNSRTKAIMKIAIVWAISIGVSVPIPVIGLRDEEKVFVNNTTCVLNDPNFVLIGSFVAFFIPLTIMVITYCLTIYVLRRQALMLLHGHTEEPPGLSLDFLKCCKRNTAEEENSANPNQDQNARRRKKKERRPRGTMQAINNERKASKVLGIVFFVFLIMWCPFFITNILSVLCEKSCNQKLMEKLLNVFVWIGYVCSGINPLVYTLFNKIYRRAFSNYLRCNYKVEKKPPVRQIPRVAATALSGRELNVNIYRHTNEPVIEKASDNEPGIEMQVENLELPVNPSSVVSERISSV

[3] = target: 5-HT6 receptor (Homo sapiens, UniProt P50406); settings: cited from earlier work
5-HT6 receptor, sequence (P50406 whole entry): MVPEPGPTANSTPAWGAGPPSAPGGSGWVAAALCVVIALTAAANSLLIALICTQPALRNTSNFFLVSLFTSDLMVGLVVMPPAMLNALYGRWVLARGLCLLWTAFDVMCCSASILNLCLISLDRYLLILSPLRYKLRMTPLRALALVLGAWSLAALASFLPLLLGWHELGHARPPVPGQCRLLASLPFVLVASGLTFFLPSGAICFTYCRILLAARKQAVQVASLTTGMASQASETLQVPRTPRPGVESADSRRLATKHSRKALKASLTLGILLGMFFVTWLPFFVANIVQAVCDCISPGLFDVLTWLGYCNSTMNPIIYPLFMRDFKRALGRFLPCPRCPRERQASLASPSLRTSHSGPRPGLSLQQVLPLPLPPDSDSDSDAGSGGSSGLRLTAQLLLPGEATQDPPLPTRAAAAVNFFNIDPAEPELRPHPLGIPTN

[4] = Plasma concentrations of SYN120 at 100 mg QD after titration (Example 10); type: in vivo, human; settings: for Plasma concentration of SYN120, individual samples: 100 mg QD after titration; for Plasma concentration of SYN120, Max / Plasma concentration of SYN120, Median / Plasma concentration of SYN120, Min / Plasma concentration of SYN120, Mean: 100 mg QD
Protocol: Patients taking SYN120 are titrated from a starting dose of 20 mg SYN120 QD for the first 7 days, followed by 50 mg SYN120 QD for the next 7 days, then 100 mg SYN120 QD for the remaining portion of the study. Plasma samples are taken on study weeks 4, 8 and 16, and a shown below in Table 17.

[5] = target: 5-HT2B receptor (Homo sapiens, UniProt P41595); settings: cited from earlier work
5-HT2B receptor, sequence (P41595 whole entry): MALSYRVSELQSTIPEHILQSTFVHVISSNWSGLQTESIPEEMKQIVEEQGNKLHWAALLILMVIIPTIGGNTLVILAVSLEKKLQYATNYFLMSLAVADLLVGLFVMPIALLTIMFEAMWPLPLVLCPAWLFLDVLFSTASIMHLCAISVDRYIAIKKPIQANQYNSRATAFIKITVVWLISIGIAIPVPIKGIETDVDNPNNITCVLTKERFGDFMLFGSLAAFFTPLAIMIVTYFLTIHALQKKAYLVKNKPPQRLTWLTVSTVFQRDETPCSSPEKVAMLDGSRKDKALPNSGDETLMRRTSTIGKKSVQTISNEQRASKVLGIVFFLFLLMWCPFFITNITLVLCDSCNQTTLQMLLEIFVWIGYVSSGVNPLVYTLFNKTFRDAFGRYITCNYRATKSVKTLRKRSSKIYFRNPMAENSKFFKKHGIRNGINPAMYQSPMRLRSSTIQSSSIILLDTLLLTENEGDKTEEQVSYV

[6] = male, human, plasma, single oral dose 100 mg (males), Cohort D, geometric mean
[7] = single oral dose 2 mg, Cohort A, arithmetic mean ±SD
[8] = single oral dose 10 mg, Cohort B, arithmetic mean ±SD
[9] = single oral dose 30 mg, Cohort C, arithmetic mean ±SD
[10] = single oral dose 100 mg (females), Cohort E, arithmetic mean ±SD
[11] = single oral dose 100 mg (males), Cohort D, arithmetic mean ±SD
[12] = single oral dose 300 mg, Cohort F, arithmetic mean ±SD
[13] = single oral dose 600 mg, Cohort G, arithmetic mean ±SD

AUC(0-t) ([1]; male, human, plasma, single oral dose 100 mg (males), Cohort D, geometric mean, read-out: AUC0-24): 5870 ng·h/mL | AUC(0-t) ([1]; male, human, plasma, single oral dose 100 mg (males), Cohort D, geometric mean, read-out: AUC0-t): 7010 ng·h/mL | half-life ([1]; male, human, plasma, single oral dose 100 mg (males), Cohort D, arithmetic mean ±SD, read-out: t1/2 (converted)): 660 min | AUC(0-inf) [1, 6]: 7060 ng·h/mL | Cmax [1, 6]: 604 ng/mL | Tmax ([1]; male, human, plasma, single oral dose 100 mg (males), Cohort D, median, read-out: Tmax): 4 h | CL/F [1, 7]: 18.8 ± 15.2 L/h | Vs/F [1, 7]: 264 ± 191 L | CL/F [1, 8]: 29.0 ± 15.0 L/h | Vs/F [1, 8]: 379 ± 283 L | CL/F [1, 9]: 19.2 ± 9.58 L/h | Vs/F [1, 9]: 253 ± 149 L | CL/F [1, 10]: 22.5 L/h and 22.5 ± 11.9 L/h | Vs/F [1, 10]: 448 L and 448 ± 500 L | CL/F [1, 11]: 15.8 L/h and 15.8 ± 7.56 L/h | Vs/F [1, 11]: 227 L and 227 ± 94.2 L | CL/F [1, 12]: 11.7 ± 4.81 L/h | Vs/F [1, 12]: 154 ± 57.3 L | CL/F [1, 13]: 15.7 ± 7.96 L/h | Vs/F [1, 13]: 246 ± 97.6 L | Plasma concentration of SYN120, Max ([4]; time range 0.5 h-1.5 h): 1310 ng/mL | Plasma concentration of SYN120, Median ([4]; time range 0.5 h-1.5 h): 309 ng/mL | Plasma concentration of SYN120, Min ([4]; time range 0.5 h-1.5 h): 8.57 ng/mL | Plasma concentration of SYN120, Mean ([4]; time range 0.5 h-1.5 h, n 7): 406.1 ng/mL | Plasma concentration of SYN120, Max ([4]; time range 1.5 h-2.5 h): 705 ng/mL | Plasma concentration of SYN120, Median ([4]; time range 1.5 h-2.5 h): 372 ng/mL | Plasma concentration of SYN120, Min ([4]; time range 1.5 h-2.5 h): 120 ng/mL | Plasma concentration of SYN120, Mean ([4]; time range 1.5 h-2.5 h, n 8): 396.5 ng/mL | Plasma concentration of SYN120, Max ([4]; time range 2.5 h-3.5 h): 1660 ng/mL | Plasma concentration of SYN120, Median ([4]; time range 2.5 h-3.5 h): 767 ng/mL | Plasma concentration of SYN120, Min ([4]; time range 2.5 h-3.5 h): 355 ng/mL | Plasma concentration of SYN120, Mean ([4]; time range 2.5 h-3.5 h, n 7): 929.3 ng/mL | Plasma concentration of SYN120, Max ([4]; time range 3.5 h-4.5 h): 1470 ng/mL | Plasma concentration of SYN120, Median ([4]; time range 3.5 h-4.5 h): 1023 ng/mL | Plasma concentration of SYN120, Min ([4]; time range 3.5 h-4.5 h): 24.2 ng/mL | Plasma concentration of SYN120, Mean ([4]; time range 3.5 h-4.5 h, n 6): 889.4 ng/mL | Plasma concentration of SYN120, Max ([4]; time range 4.5 h-7.5 h): 1210 ng/mL | Plasma concentration of SYN120, Median ([4]; time range 4.5 h-7.5 h): 920 ng/mL | Plasma concentration of SYN120, Min ([4]; time range 4.5 h-7.5 h): 124 ng/mL | Plasma concentration of SYN120, Mean ([4]; time range 4.5 h-7.5 h, n 6): 779.5 ng/mL | time of peak plasma level after administration ([4]; once per day maintenance dosing): 1 to 4 h
Compound: NC(=O)NC[C@@H]1CCCc2cc(S(=O)(=O)c3cccc(F)c3)ccc21 [SYN120]
pKi [2]: 8.1 | pKi [3]: 9.6 | Plasma concentration of SYN120, individual samples ([4]; time range 0.5 h-1.5 h): 1310 ng/mL and 297 ng/mL and 116 ng/mL and 476 ng/mL and 326 ng/mL and 8.57 ng/mL and 309 ng/mL | Plasma concentration of SYN120, individual samples ([4]; time range 1.5 h-2.5 h): 120 ng/mL and 558 ng/mL and 314 ng/mL and 705 ng/mL and 229 ng/mL and 235 ng/mL and 430 ng/mL and 581 ng/mL | Plasma concentration of SYN120, individual samples ([4]; time range 2.5 h-3.5 h): 1660 ng/mL and 355 ng/mL and 473 ng/mL and 410 ng/mL and 1220 ng/mL and 1620 ng/mL and 767 ng/mL | Plasma concentration of SYN120, individual samples ([4]; time range 3.5 h-4.5 h): 1330 ng/mL and 855 ng/mL and 24.2 ng/mL and 467 ng/mL and 1190 ng/mL and 1470 ng/mL | Plasma concentration of SYN120, individual samples ([4]; time range 4.5 h-7.5 h): 1160 ng/mL and 124 ng/mL and 344 ng/mL and 989 ng/mL and 1210 ng/mL and 850 ng/mL | pKi [5]: 7.7
